Measured values reported in US20200157135A1, “SIDE-CHAIN MODIFIED ERGOSTEROL AND STIGMASTEROL DERIVATIVES AS LIVER X RECEPTOR MODULATORS” (Ospedale San Raffaele srl, priority 2017, published 2020).
Read-outs that look alike come from different tables or passages of the source.

Experiments:
hPXR = assay: luciferase assay GAL4-hPXR in human embryonic kidney 293 cells; type: cell-based; settings: compounds at 10 μM
Procedure: Human embryonic kidney 293 cells were co-transfected with GAL4-hRXR (A), GAL4-hPPARγ (B), GAL4-hPXR (C) and GAL4-hFXR (D) expression plasmids together with GAL4 responsive element pMHC100X4-TK-luc and Renilla plasmids. Cells were incubated with vehicle (DMSO), PFMs at the concentration of 10 μM, and the nuclear receptor specific ligands 9cis retinoic acid (100 nM) (A), Rosiglitazone (RSG 100 nM) (B), T0901317 (100 nM) (C) and GW4064 (100 nM) (D) for six hours. The values represent mean±S.D. RLA, relative luciferase activity.
The selectivity of our compounds within the nuclear receptor superfamily was also evaluated by luciferase assays using GAL4-RXR, -PPARγ, -PXR and -FXR plasmids.
(§1) Cell Culture and Co-transfection Assays. Human embryonic Kidney 293 cells (American Type Culture Collection) were cultured in Dulbecco's Modified Eagle's medium containing 10% of fetal bovine serum at 37° C. in humidified atmosphere of 5% CO2. HEK293 cells (4×10^4 cells per well) were transiently transfected in 48 well plate with the reporter plasmids pMH100X4-TK-luc (100 ng/well), Renilla (22 ng/well) together with 100 ng/well of pCMX-Gal4-RXR, pCMX-Gal4-PPAR-γ, pCMX-Gal4-PXR, pFA-CMV-FXR pCMX-Gal4-LXR-α or pCMX-Gal4-LXR-β plasmids using X-tremeGENE 9 DNA Transfection Reagent (Roche). Six hours after transfection, the cells were treated with the appropriate compound for 24 hours. Luciferase activities were analyzed by luciferase Dual Reporter Assay Systems (Promega) according to the manufacturer's protocol. GAL4-LXRs, GAL4-PPAR-γ, GAL4-RXR and TK-MHC100-luc plasmids were described in Villablanca et al.49 GAL4-PXR was a kind gift of Dr. Enrique Sainz (The Scripps Research Institute, La Jolla, USA). GAL4-FXR was a kind gift of Dr. Daniel Merk (Goethe-University Frankfurt am Main). The results obtained by luciferase assays and reported in Table 1 are from three to five independent experiments.

MCP-1/CCL2 = assay: qPCR of CCL2 expression in differentiated U937 cells treated with LPS; type: cell-based, human; settings: differentiated U937, 6 hours, 10 μM in combination with LPS (100 ng/ml)
Procedure: (§2) U937 cells differentiated with PMA for 72 hours were treated with LPS (100 ng/ml) in combination with T0901317 (10 μM) or with the title compounds (10 μM). […] (n=3/group). *p<0.05, **p<0.01, ***p<0.001.
(§3) Quantitative Real-Time-PCR. U937 cell line was differentiated in foam macrophages with phorbol 12-myristate 13-acetate (PMA) 10 ng/ml (Sigma) for 72 hours at 37° C. in […] at the concentration of 3×10^6 cells in 10 ml RPMI 10% FBS. At day 3 nuclear receptor ligands were added for 6 hours. HepG2 cells were treated with the ligands as described by Quinet et al.22 Total RNA was purified by TRIZOL (Invitrogen, Carlsbad, Calif., USA). Reverse transcription was performed incubating 2 μg of total RNA 1 hour at 42° C. with MLV-reverse transcriptase (Promega). Quantitative PCR was performed using Sybr Green Master Mix (Applied Biosystems) and real-time PCR (Viia 7 Real Time PCR System, Applied Biosystems). All PCR reactions were done in triplicate. The comparative Ct method was used to quantify transcripts that were normalized for human GAPDH. the following primer pairs were used: […]

TNFα = assay: qPCR of TNFα expression in differentiated U937 cells treated with LPS; type: cell-based, human; settings: differentiated U937, 6 hours, 10 μM in combination with LPS (100 ng/ml)
Procedure: as §2, §3

hLXRα = molecular target: T1, hLXRα (Homo sapiens, UniProt Q13133); assay: luciferase assay with GAL-4 chimeric hLXRα receptor in human embryonic kidney 293 cells; type: cell-based; settings: for Emax: HEK293, 24 h, read-out: LXRα Efficacy (%) ± SD; for LXR isoform selectivity profile: LXRα versus LXRβ, GAL4 luciferase assays
T1 sequence (Q13133 209-447 limits assumed): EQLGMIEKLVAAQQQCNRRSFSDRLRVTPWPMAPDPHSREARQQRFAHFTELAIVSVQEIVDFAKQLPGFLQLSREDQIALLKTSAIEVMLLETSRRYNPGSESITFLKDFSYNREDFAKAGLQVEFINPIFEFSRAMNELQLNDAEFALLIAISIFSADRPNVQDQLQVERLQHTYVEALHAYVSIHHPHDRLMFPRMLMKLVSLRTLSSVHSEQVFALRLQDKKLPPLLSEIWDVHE
Procedure: (§4) All the synthesized compounds were first tested for their ability to activate LXRs by using luciferase assays with GAL-4 chimeric receptors. These were performed by co-transfecting plasmids encoding hLXRα- and β-binding domains fused to GAL-4, with the respective responsive element conjugated with the luciferase reporter gene into the human embryonic kidney 293 cells.
as §1
(§5) Statistical analysis. Data are expressed as mean±SEM and were analyzed for significance by ANOVA with Dunnet's multiple comparison tests. The analysis was performed with Prism software. Data in Table 1 are expressed as EC50±SD. In particular, the standard deviations were obtained by calculating the mean of the EC50 of each experiment (three to five independent experiments). The efficacy (%) of the compounds was calculated as the percentage of the compound effect, in terms of LXRα or β activation, versus 8 μM of 22R—HC±SD. The analyses were performed with Prism software.

hLXRβ = molecular target: T2, hLXRβ (Homo sapiens, UniProt P55055); assay: luciferase assay with GAL-4 chimeric hLXRβ receptor in human embryonic kidney 293 cells; type: cell-based
T2 sequence (P55055 222-460 limits assumed): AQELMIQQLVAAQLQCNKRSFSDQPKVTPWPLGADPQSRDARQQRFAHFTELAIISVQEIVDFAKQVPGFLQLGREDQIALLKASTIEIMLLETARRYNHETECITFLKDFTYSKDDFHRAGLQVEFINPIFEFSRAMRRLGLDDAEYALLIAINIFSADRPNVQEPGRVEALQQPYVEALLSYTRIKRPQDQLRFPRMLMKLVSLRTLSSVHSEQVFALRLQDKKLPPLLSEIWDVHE
Procedure: as §4, §1, §5

[1] = GAL4-hLXRα luciferase, HEK293, dose-response 32-1 μM, mean of three-five independent experiments, read-out: LXRα EC50 (μM) ± SD
[2] = % of compound effect versus 8 μM of 22R-HC

| Compound | PXR activation (hPXR) | inhibition of CCL2 expression (MCP-1/CCL2) | EC50 (hLXRα; [1]) [µM] | Emax (hLXRα; [2]) [%] | LXR isoform selectivity profile (hLXRα) | other results |
| --- | --- | --- | --- | --- | --- | --- |
| CC(C)[C@@H](C)[C@@H](O)C[C@@H](C)[C@H]1CC[C@H]2C3=CC=C4C[C@@H](O)CC[C@]4(C)[C@H]3CC[C@]12C [Compound 21, (23S)-3β-Ergost-5,7-diene-3,23-diol] | slight activation of PXR | same grade of potency of the positive control T0901317 | 8.07 ± 1.6 | 159 ± 41.3 | selective LXRα agonists | inhibition of TNFα expression (TNFα): the most active |
| CC(C)[C@@H](C)C[C@H](O)[C@@H](C)[C@H]1CC[C@H]2C3=CC=C4C[C@@H](O)CC[C@]4(C)[C@H]3CC[C@]12C [Compound 22, (22S)-3β-Ergost-5,7-diene-3,22-diol] | slight activation of PXR | same grade of potency of the positive control T0901317 | 6.61 ± 1.69 |  |  | EC50 (hLXRβ; GAL4-hLXRβ luciferase, HEK293, dose-response 32-1 μM, mean of three-five independent experiments, read-out: LXRβ EC50 (μM) ± SD): 1.96 ± 0.1 µM |
| CC(C)[C@@H](C)[C@H](O)C[C@@H](C)[C@H]1CC[C@H]2C3=CC=C4C[C@@H](O)CC[C@]4(C)[C@H]3CC[C@]12C [Compound 23, (23R)-3β-Ergost-5,7-diene-3,23-diol] |  |  | 15.8 ± 0.65 | 63.9 ± 26.9 |  |  |
| CC(C)[C@@H](C)C(=O)C[C@@H](C)[C@H]1CC[C@H]2C3=CC=C4C[C@@H](O)CC[C@]4(C)[C@H]3CC[C@]12C [Compound 27, 3β-Hydroxyergost-5,7-diene-23-one] |  |  | 5.58 ± 0.3 | 151 ± 4.8 | selective LXRα agonists |  |
| CC(C)[C@@H](C)CC(=O)[C@@H](C)[C@H]1CC[C@H]2C3=CC=C4C[C@@H](O)CC[C@]4(C)[C@H]3CC[C@]12C [Compound 28, 3β-Hydroxyergost-5,7-diene-22-one] |  |  | 8.51 ± 0.42 | 70.2 ± 3.9 | selective LXRα agonists |  |
| CC[C@](O)(CC[C@@H](C)[C@H]1CCC2C3CC=C4C[C@@H](O)CC[C@]4(C)C3CC[C@@]21C)C(C)C (some centres unmarked) [Compound 29] |  |  |  |  |  | EC50 (hLXRβ): 3.21 ± 0.6 µM; Emax (hLXRβ; HEK293, 24 h, read-out: LXRβ Efficacy (%) ± SD, % of compound effect versus 8 μM of 22R-HC): 48.4 ± 5%; beta/alfa efficacy ratio (hLXRβ; LXRβ efficacy over LXRα efficacy): 4.4; EC50 (hLXRα): 3.72 ± 0.5 µM; Emax (hLXRα): 11 ± 4.08% |
